# Measurements published in US20170306042A1, “IMMUNOGENIC MODULATION BY ENDOCRINE DEPRIVATION THERAPY IMPROVES SENSITIVITY OF TUMOR CELLS TO IMMUNE MEDIATED LYSIS” (The United States of America, as represented by the …, priority 2014, published 2017).
# What was measured:
# Type in all cases: cell-based, human
# LNCaP cells = experiment: Apoptosis PCR array (96 genes) in LNCaP cells
# Method: The properties of ADT that induce immunogenic modulation and sensitize prostate tumor cells to immune-mediated attack are novel and have not been previously described. It was hypothesized that modulation of apoptotic genes might be part of the mechanism of action of ADT-induced CTL sensitization. […] In particular, gene expression was assessed using an apoptosis PCR array (SA Biosciences, Valencia, Calif.) as per the manufacturer's instructions. RT-PCR was performed on the 7300 Real-Time PCR System (Applied Biosystems, Carlsbad, Calif.). Where indicated, values were calculated as expression relative to GAPDH, as previously described (Ardiani et al., Cancer Res., 74(7): 1945-1957 (2014))
# [1] = test system: ZR75-1, MCF, BT549 and HCC1806 cells; experiment: Viability of breast cancer cells treated with tamoxifen; settings: 1 μM
# Method: ZR75-1 (ER+PR+Her2+), MCF (ER+PR+Her2−), BT549 (ER−PR−Her2−), and HCC1806 (ER−PR−Her2−) cells were treated with vehicle or 1 μM tamoxifen to replicate intratumoral concentrations. FIGS. 12A-12D illustrate the fold increase in cell number following treatment. Viability never diminished more than 10% at any given time point.
# MCF-7 cells = experiment: CTL assay after tamoxifen, MCF-7 targets; settings: MCF-7 (ER+); 1 μM, 72 hours; CEA-specific or MUC-1 specific CTLs; E:T 30:1
# Method: (§1) To determine sensitivity to immune-mediated killing, breast cancer cells treated with vehicle or 1 μM tamoxifen for 72 hours and then used as targets in a CTL assay using CEA-specific or MUC-1 specific CTLs as effector cells at an E:T ratio of 30:1.
# ZR75-1 cells = experiment: CTL assay after tamoxifen, ZR75-1 targets; settings: ZR75-1 (ER+); 1 μM, 72 hours; CEA-specific or MUC-1 specific CTLs; E:T 30:1
# Method: as §1
# HCC1806 cells = experiment: CTL assay after tamoxifen, HCC1806 targets; settings: HCC1806 (ER−); 1 μM, 72 hours; E:T 30:1
# Method: as §1
# BT549 cells = experiment: CTL assay after tamoxifen, BT549 targets; settings: BT549 (ER−); 1 μM, 72 hours; E:T 30:1
# Method: as §1
# [2] = apoptosis PCR array, negative = down-regulated
Structure (SMILES),number of 96 apoptosis genes down-regulated greater than 2-fold (LNCaP cells; RT-PCR array),number of 96 apoptosis genes up-regulated greater than 2-fold (LNCaP cells; RT-PCR array),CASP1 (Caspase 1) gene expression change (LNCaP cells; [2]),CASP5 gene expression change (LNCaP cells; [2]),CASP8 gene expression change (LNCaP cells; [2]),CD27 gene expression change (LNCaP cells; [2]),DAPK1 gene expression change (LNCaP cells; [2]),HRK gene expression change (LNCaP cells; [2]),NAIP gene expression change (LNCaP cells; [2]),TNFRSF25 (DR3) gene expression change (LNCaP cells; [2]),TNFSF8 gene expression change (LNCaP cells; [2]),NAIP down-regulated (LNCaP cells; rounded from Table 1),diminution of viability at any given time point [1],CTL-mediated lysis (MCF-7 cells),CTL-mediated lysis (ZR75-1 cells),CEA-specific killing (HCC1806 cells),CEA-specific killing (BT549 cells)
C[C@]12CC[C@H](O)CC1=CC[C@@H]1[C@@H]2CC[C@]2(C)C(c3cccnc3)=CC[C@@H]12 [abiraterone],14,11,−4.05 fold,−4.22 fold,−2.25 fold,−3.50 fold,−13.73 fold,−8.57 fold,−4.72 fold,−7.41 fold,−7.51 fold,5 fold,–,–,–,–,–
CC/C(=C(\c1ccccc1)c1ccc(OCCN(C)C)cc1)c1ccccc1 [tamoxifen],–,–,–,–,–,–,–,–,–,–,–,–,≤ 10%,improved the CTL-mediated lysis,improved the CTL-mediated lysis,improved CEA-specific killing,improved CEA-specific killing
